Laboratory results from PubChem BioAssay (NCI).
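All cell lines were grown in 96-well plates and treated with compound for 48 hours. TGI denotes the concentration required for complete inhibition of growth.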

What was measured:
Assay in all cases: NCI-60 cell line screen, 48 h
A498 renal = system: A498 renal
CCRF-CEM leukemia = system: CCRF-CEM leukemia
COLO 205 colon = system: COLO 205 colon
HCT-116 colon = system: HCT-116 colon
HL-60(TB) leukemia = system: HL-60(TB) leukemia
HS 578T breast = system: HS 578T breast
IGROV1 ovarian = system: IGROV1 ovarian
LOX IMVI melanoma = system: LOX IMVI melanoma
MCF7 breast = system: MCF7 breast
MDA-MB-435 = system: MDA-MB-435
MDA-N = system: MDA-N
NCI-H226 lung = system: NCI-H226 lung
NCI-H460 lung = system: NCI-H460 lung
OVCAR-8 ovarian = system: OVCAR-8 ovarian
SF-268 CNS = system: SF-268 CNS
SF-295 CNS = system: SF-295 CNS
SK-MEL-28 melanoma = system: SK-MEL-28 melanoma
K-562 leukemia = system: K-562 leukemia
OVCAR-3 ovarian = system: OVCAR-3 ovarian
OVCAR-4 ovarian = system: OVCAR-4 ovarian

| SMILES | TGI (A498 renal) [µM] | TGI (CCRF-CEM leukemia) [µM] | TGI (COLO 205 colon) [µM] | TGI (HCT-116 colon) [µM] | TGI (HL-60(TB) leukemia) [µM] | TGI (HS 578T breast) [µM] | TGI (IGROV1 ovarian) [µM] | TGI (LOX IMVI melanoma) [µM] | TGI (MCF7 breast) [µM] | TGI (MDA-MB-435) [µM] | TGI (MDA-N) [µM] | TGI (NCI-H226 lung) [µM] | TGI (NCI-H460 lung) [µM] | TGI (OVCAR-8 ovarian) [µM] | TGI (SF-268 CNS) [µM] | TGI (SF-295 CNS) [µM] | TGI (SK-MEL-28 melanoma) [µM] | TGI (K-562 leukemia) [µM] | TGI (OVCAR-3 ovarian) [µM] | TGI (OVCAR-4 ovarian) [µM] |
| --- | --- | --- | --- | --- | --- | --- | --- | --- | --- | --- | --- | --- | --- | --- | --- | --- | --- | --- | --- | --- |
| Cc1nn(C(=O)Cc2ccccc2)c2c1C(c1ccc(O)cc1O)SC(N)=N2 (stereo not drawn) | > 100 | > 100 | > 100 | > 100 | > 100 | > 100 | > 100 | > 100 | > 100 | > 100 | > 100 | > 100 | > 100 | > 100 | > 100 | > 100 | > 100 |  |  |  |
| CC(=O)O[C@H]1[C@@H]2OC(=O)[C@@](O)(CC3CCCO3)[C@@H]2CC(=O)[C@](C)(O)CC/C=C(\C)CCC[C@@H]1C (stereo partly drawn) | > 100 | 68.4 | 34.5 |  | 57.8 | > 100 | > 100 | 46.1 | > 100 | > 100 | 49.4 | 32.5 | > 100 | > 100 | > 100 | > 100 | 44.5 | 90.9 | > 100 | > 100 |
| CN(C)CCNC(=O)c1cc([N+](=O)[O-])cc2c1Oc1ccccc1O2 | > 100 | > 100 | 33.3 | > 100 | > 100 | 99.8 | > 100 | > 100 | > 100 | > 100 | > 100 | 50 | > 100 | > 100 | > 100 | > 100 | > 100 | > 100 | > 100 | > 100 |
| O=c1ccn([C@@H]2C[C@@H]2CO)c(=O)[nH]1 | > 100 | > 100 | > 100 | > 100 | > 100 | > 100 | > 100 | > 100 | > 100 | > 100 | > 100 | > 100 | > 100 | > 100 | > 100 |  | > 100 | > 100 |  | > 100 |
| CC(=O)O[C@H]1C(=O)[C@@]2(C)[C@H]([C@H](OC(=O)c3ccccc3)[C@]3(O)C[C@H](OC(=O)[C@H](O)[C@@H](NC(=O)c4cccc(N=[N+]=[N-])c4)c4ccccc4)C(C)=C1C3(C)C)[C@]1(OC(C)=O)CO[C@@H]1C[C@@H]2O | 7.62 | 0.0681 | 0.0405 |  | < 0.0025 | 0.0712 | > 25 | > 25 | > 25 | 0.00412 | 0.00735 | > 25 | > 25 | > 25 | > 25 | 0.19 | > 22.8 | 0.0242 |  | > 25 |
| O=C1CSC(c2ccc([N+](=O)[O-])cc2)N1c1ccc(-n2c(-c3ccccc3)nc3ccccc3c2=O)cc1 (stereo not drawn) | > 100 | > 100 | > 100 | > 100 | > 100 | > 100 | > 100 | > 100 | > 100 | > 100 | > 100 | > 100 | > 100 | > 100 | > 100 | > 100 | > 100 | > 100 | > 100 | 95.7 |
| O=C(c1ccc(Cl)cc1)N(C(=O)N1CCC(c2ccccc2)CC1)c1ccccc1 | 96.5 | 77.4 | > 100 | > 100 | 61.5 | > 100 | > 100 | > 100 | > 100 | > 100 | > 100 | 99.7 |  | > 100 | > 100 | > 100 | > 100 | > 100 | > 100 |  |
| COc1ccc(-n2cnc3c2NC(C)(C)N=C3C(N)=O)c(OC)c1 | > 100 | > 100 | > 100 | > 100 | > 100 | > 100 | > 100 | > 100 | > 100 | > 100 | > 100 | > 100 | > 100 | > 100 | > 100 | > 100 | > 100 | > 100 | > 100 | > 100 |
| C=CCOC(=O)NC1C(OC(C)[C@@H](NC(=O)OCc2ccccc2)C(=O)OC(C)(C)C)OC(COC(C)=O)C(OC(C)=O)C1OC(C)=O (stereo partly drawn) | > 100 | > 100 | > 100 | > 100 | > 100 | > 100 | > 100 | > 100 | > 100 | > 100 | > 100 | > 100 | > 100 | > 100 | > 100 | > 100 | > 100 | > 100 | > 100 | > 100 |
| CC[C@@H]1CC[C@@H]2[C@H](CC[C@]3(C)[C@@H](OS(=O)(=O)c4ccc(C)cc4)CC[C@@H]23)[C@H]1COS(=O)(=O)c1ccc(C)cc1 | > 100 | > 100 |  | > 100 | > 100 | > 100 | > 100 | > 100 | > 100 | > 100 | > 100 | > 100 | > 100 | > 100 | > 100 | > 100 | > 100 | > 100 |  | > 100 |
| Cc1cccc(CP(Cc2cccc(C)c2)CC2(Cp3c4ccccc4c4ccccc43)COC2)c1 | > 100 | > 100 | 2.96 | > 100 | 2.78 | > 100 | > 100 | > 100 | > 100 | > 100 | > 100 | > 100 | > 100 | > 100 | > 100 | > 100 | > 100 | > 100 | > 100 | > 100 |
| CCN(CC)/C(Sc1ccccc1)=C(\C(Cl)=C(Cl)Cl)[N+](=O)[O-] | 36.3 | 20.9 | 31.5 | 32.8 | 5.94 | 81 | 43.7 | 25.8 | 30.2 | 27.7 | 40.2 | 42.8 | 50.3 | 35.6 | 58.3 | 37.1 | 32 | 31.9 | 32.7 | > 100 |
| NC(=O)c1cc2ccc(O)cc2oc1=Nc1ccccc1 | 68.1 | > 100 | 44 | > 100 | 62.4 | > 100 | > 100 | > 100 | > 100 | > 100 | > 100 | 88.6 | > 100 | > 100 | > 100 | > 100 | > 100 | > 100 | > 100 | > 100 |
| O=S(=O)(O)C(=Nc1cccc(Cc2ccccc2)c1)Nc1cccc(Cc2ccccc2)c1 | 45.8 | 98 | 34.3 | 28.2 | 95.7 | 45.5 | 31.3 | 26.6 | 37.9 | 40.6 | 47.2 | 33.7 |  | 36.2 | 33.6 | 34.3 | 38.8 | > 100 |  | 41 |
| O=C(CCCN1CCC2(CC1)CC(=O)N(N1CCCCCC1)C2=O)c1ccccc1 | > 100 | > 100 | > 100 | > 100 | > 100 | > 100 | > 100 | > 100 | > 100 | > 100 | > 100 | > 100 |  | > 100 | > 100 | > 100 | > 100 | > 100 | > 100 | > 100 |
| CC(=O)OCC1OC(OC2CC3C(C)(C)C(OC(C)=O)CC[C@]3(C)C3CCC45CC4(CCC5[C@@H](C)C[C@H](O)C(O)C(C)(C)O)[C@]23C)C(O)C(O)C1O (stereo partly drawn) | > 10 | > 10 | > 10 | > 10 | > 10 | > 10 | > 10 | > 10 | > 10 | > 10 | > 10 | > 10 | > 10 | > 10 | > 10 | > 10 | > 10 | > 10 | > 10 | > 10 |
| Brc1cc(CCOC2CCCCO2)c(-c2sccc2CCOC2CCCCO2)s1 (stereo not drawn) | > 100 | > 82.5 | > 100 | > 100 | 42.3 | > 95.7 | > 100 | > 71.2 | > 80 | > 100 | > 100 | > 100 | > 100 | > 100 | > 100 | > 100 | > 100 | > 31.6 | > 100 | > 100 |
| COc1cc(-c2cc(-c3ccccc3)nc(-c3c(OC)ccc4c(C)cc(=O)oc34)c2)cc(OC)c1OC | > 100 | > 100 | > 100 | > 100 | > 100 | > 100 | > 100 | > 100 | > 100 | > 100 | > 100 | > 100 | > 100 | > 100 | > 100 | > 100 |  | > 100 | > 100 | > 100 |
| COc1ccc(CC(=O)N2CCC3(C)CC(=O)CC=C23)cc1OC (stereo not drawn) | > 100 |  | > 100 | > 100 | > 100 | > 100 | > 100 | > 100 | > 100 | > 100 | > 100 | > 100 |  | > 100 | > 100 | > 100 | > 100 | > 100 | > 100 | > 100 |
| C=CCc1cccc2cc(C(=O)Nc3ccccc3)c(=N)oc12 | 50.3 | > 100 | > 100 | > 100 | > 100 | > 100 | > 100 | > 100 | > 100 | > 100 | > 100 | > 100 | > 100 | > 100 | > 100 |  | > 100 | > 100 | > 100 | 74.9 |
| COc1ccc(-n2c(=O)[nH]n(C(C)=O)c2=O)cc1 | > 100 | > 100 | > 100 | > 100 | > 100 | > 100 | > 100 | > 100 | > 100 | > 100 | > 100 | > 100 | > 100 | > 100 | > 100 | > 100 | > 100 | > 100 |  | > 100 |
| CC(C)=CCC/C(=C/CC/C(=C\CCc1ccoc1)C(=O)O)C(=O)O | > 100 | > 100 | > 100 | > 100 | > 100 | > 100 | > 100 | > 100 | > 100 | > 100 | > 100 | > 100 |  | > 100 | > 100 | > 100 | > 100 | > 100 | > 100 | > 100 |
| Cc1cn(C2CC(O)C(COC(=O)NCCC(F)(F)C(F)(F)C(F)(F)C(F)(F)F)O2)c(=O)[nH]c1=O (stereo not drawn) | > 100 | > 100 | > 100 | > 100 | > 100 | > 100 | > 100 |  | > 100 | > 100 | > 100 | > 100 | > 100 | > 100 | > 100 | > 100 | > 100 | > 100 | > 100 | > 100 |
